Laboratory results published in ChEMBL document CHEMBL1201862, “PubChem BioAssay data set” (2004).
Active and inactive are the calls of the source.

Key:
[1] = biological target: T1, Heat shock factor protein 1 (Mus musculus, UniProt P38532); assay: HSF1 potentiators in luciferase reporter cells, confirmation, cell-based, NIH3T3, luminescence, dose retest (AID 435004); format: functional;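 note: stress induced by proteasome inhibitor MG132 added 30 min after compound; luciferase reporter driven by HSF1 response element in NIH3T3 cells; actives raise luminescence as potentiators of the MG132 stress response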
T1 sequence (P38532 whole entry): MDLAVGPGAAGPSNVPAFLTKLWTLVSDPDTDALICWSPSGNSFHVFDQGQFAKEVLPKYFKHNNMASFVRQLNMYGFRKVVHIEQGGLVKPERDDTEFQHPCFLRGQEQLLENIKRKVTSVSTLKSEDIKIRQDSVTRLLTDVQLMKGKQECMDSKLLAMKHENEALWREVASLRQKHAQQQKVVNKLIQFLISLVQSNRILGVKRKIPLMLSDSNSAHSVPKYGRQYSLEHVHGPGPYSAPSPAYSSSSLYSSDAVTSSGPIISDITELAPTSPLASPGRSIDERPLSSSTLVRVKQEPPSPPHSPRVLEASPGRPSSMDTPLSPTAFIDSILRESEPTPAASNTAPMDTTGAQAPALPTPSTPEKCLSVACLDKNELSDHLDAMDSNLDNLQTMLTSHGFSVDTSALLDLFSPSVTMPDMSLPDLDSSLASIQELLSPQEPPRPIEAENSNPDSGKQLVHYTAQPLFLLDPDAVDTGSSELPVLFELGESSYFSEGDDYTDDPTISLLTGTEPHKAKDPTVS

[2] = cells; format: functional, cell-based
[3] = cells; format: functional, cell-based; remark: listed apart in the source
[4] = growth suppression of PTEN-null colon cells, dose response, cell-based, HCT116 PTEN knockout (AID 1047); format: functional;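 note: HCT116 colon tumor cells with PTEN knocked out; cells exposed to compound for 60 hours before readout; potency for loss of cell viability measured by luminescence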
[5] = growth suppression of beta-catenin-knockout colon cells, dose response, cell-based, HCT116, human colon tumor (AID 1045); format: functional;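 note: HCT116 colon tumor cells with beta catenin knocked out; cells exposed to compound for 60 hours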
[6] = biological target: T1, Heat shock factor protein 1; assay: inhibition of MG132-induced HSE-luciferase signal, confirmation, cell-based, NIH3T3, luminescence, dose retest (AID 2382); format: functional;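 note: NIH3T3 fibroblasts with HSF1-driven luciferase reporter stressed by proteasome inhibitor MG132; luminescence from HSF1-driven luciferase expression after 8 hours of MG132 stress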
[7] = Luminescence Cell-Based Dose Retest to Confirm Inhibitors of Cancer Stem Cells. [Related pubchem assays (depositor defined):AID2717, AID2721]; format: functional; conditions: Homo sapiens
[8] = tested on: INS1; assay: beta cell apoptosis inhibitors, cytokine rescue, dose response, luminescence, retest (AID 449756); format: functional, cell-based; conditions: Rattus norvegicus;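 note: cell death triggered by IL-1 beta plus TNF-alpha plus IFN-gamma mixture; protective hits raise ATP signal compared with cytokine alone wells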
[9] = biological target: Cytochrome P450 2D6 (Homo sapiens, UniProt P10635);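 note: CYP2D6 member of a cytochrome P450 panel assay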
[10] = biological target: T2, Protein RecA (Mycobacterium tuberculosis, UniProt P9WHJ3); assay: Fluorescence Cell-Free Homogeneous Dose Retest to Identify Inhibitors of RecA-Intein Splicing Activity. [Related pubchem assays (depositor defined):AID2097, AID2223, AID489010, AID492950]; format: functional
T2 sequence (P9WHJ3 whole entry): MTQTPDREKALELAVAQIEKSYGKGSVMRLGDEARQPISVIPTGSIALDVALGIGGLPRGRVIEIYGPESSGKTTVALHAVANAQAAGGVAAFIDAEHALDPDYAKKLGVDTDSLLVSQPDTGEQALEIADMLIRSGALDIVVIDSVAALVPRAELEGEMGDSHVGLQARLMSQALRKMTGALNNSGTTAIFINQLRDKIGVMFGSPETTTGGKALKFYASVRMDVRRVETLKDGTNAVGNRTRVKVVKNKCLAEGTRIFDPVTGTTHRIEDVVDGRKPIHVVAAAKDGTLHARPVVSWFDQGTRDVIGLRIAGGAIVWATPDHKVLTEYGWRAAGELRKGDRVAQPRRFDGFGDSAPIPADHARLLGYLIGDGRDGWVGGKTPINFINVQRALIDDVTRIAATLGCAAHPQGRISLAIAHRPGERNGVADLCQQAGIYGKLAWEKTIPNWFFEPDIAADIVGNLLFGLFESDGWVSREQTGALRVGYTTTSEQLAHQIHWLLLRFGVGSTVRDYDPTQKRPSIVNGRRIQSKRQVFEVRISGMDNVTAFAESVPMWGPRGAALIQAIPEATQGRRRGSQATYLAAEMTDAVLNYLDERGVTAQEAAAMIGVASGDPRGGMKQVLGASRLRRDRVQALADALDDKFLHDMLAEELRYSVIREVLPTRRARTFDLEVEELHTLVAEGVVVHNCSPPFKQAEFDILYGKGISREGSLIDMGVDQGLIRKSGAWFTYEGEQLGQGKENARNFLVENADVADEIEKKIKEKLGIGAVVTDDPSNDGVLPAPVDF

[11] = biological target: T3, Ubiquitin-conjugating enzyme E2 N (Homo sapiens, UniProt P61088); format: functional;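 note: Dose-response confirmation in a TR-FRET assay detecting UBC13-driven polyubiquitin chain formation, inhibition measured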
T3 sequence (P61088 whole entry): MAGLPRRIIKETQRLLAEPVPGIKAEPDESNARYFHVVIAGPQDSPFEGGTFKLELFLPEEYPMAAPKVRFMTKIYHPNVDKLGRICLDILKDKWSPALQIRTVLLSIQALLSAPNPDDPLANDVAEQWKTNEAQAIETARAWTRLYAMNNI

[12] = biological target: T4, Replicative DNA helicase DnaB (Mycobacterium tuberculosis, UniProt P9WMR3); assay: DnaB intein splicing inhibitors, dose response, biochemical, cell-free fluorescence (AID 449749); format: functional
T4 sequence (P9WMR3 whole entry): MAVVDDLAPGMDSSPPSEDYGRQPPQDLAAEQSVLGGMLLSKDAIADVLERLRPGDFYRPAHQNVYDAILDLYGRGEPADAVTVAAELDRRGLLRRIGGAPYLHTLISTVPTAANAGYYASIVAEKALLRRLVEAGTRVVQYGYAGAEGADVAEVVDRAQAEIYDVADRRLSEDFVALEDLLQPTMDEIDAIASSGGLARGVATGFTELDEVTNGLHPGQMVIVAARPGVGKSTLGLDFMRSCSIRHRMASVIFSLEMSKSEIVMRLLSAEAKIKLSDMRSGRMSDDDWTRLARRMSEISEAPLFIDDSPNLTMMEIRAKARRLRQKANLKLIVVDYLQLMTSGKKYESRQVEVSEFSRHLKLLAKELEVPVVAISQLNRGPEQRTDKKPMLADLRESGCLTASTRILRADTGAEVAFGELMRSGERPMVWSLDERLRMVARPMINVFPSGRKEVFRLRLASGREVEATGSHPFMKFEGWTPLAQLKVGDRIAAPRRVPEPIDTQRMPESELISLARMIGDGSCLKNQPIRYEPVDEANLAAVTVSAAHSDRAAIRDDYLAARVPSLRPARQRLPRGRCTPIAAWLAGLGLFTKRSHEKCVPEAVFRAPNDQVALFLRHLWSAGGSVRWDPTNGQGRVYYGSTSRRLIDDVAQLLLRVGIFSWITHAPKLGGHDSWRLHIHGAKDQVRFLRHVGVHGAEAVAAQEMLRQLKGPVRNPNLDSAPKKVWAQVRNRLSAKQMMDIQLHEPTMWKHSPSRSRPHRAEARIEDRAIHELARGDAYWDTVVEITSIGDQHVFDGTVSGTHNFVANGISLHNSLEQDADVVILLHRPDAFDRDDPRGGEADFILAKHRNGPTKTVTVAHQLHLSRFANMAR

[13] = cytotoxicity toward NIH3T3 fibroblasts, dose response, counter-screen, cell-based, ATP luminescence, mouse fibroblasts (AID 2010); format: functional;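 note: cells exposed to compound for about 90 hours before reading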
[14] = inhibitors of intracellular T. cruzi replication, confirmation, NIH3T3 host cells, beta-gal luminescence (AID 2044); format: functional, cell-based;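 note: intracellular parasites grown in NIH/3T3 mouse fibroblasts as host cells; luminescent beta-galactosidase reporter signal from transgenic T. cruzi replicating inside host cells; inhibitors lower the luminescence signal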
[15] = Luminescence Cell-Based Dose Response HTS to Identify Inhibitors of 5'UTR Stem-Loop Driven Prion Protein mRNA Translation in H4 Neuroglioblastoma Cells. [Related pubchem assays: 1827 (Project Summary), 1813 (Primary HTS)]; format: functional
[16] = inhibitors of firefly luciferase expression or activity, dose response, H4 neuroglioma cells, luminescence (AID 1990); format: functional, cell-based
[17] = biological target: Cytochrome P450 3A4 (Homo sapiens, UniProt P08684);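 note: CYP3A4 tested as one member of a cytochrome P450 panel screen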
[18] = HEp-2 cell cytotoxicity, dose response, cytotoxicity control for RSV inhibitor project, HTS (AID 2410); format: functional; conditions: human respiratory syncytial virus
[19] = biological target: T5, Cytochrome P450 1A2 (Homo sapiens, UniProt P05177);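 note: PubChem cytochrome P450 panel assay, CYP1A2 panel member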
T5 sequence (P05177 whole entry): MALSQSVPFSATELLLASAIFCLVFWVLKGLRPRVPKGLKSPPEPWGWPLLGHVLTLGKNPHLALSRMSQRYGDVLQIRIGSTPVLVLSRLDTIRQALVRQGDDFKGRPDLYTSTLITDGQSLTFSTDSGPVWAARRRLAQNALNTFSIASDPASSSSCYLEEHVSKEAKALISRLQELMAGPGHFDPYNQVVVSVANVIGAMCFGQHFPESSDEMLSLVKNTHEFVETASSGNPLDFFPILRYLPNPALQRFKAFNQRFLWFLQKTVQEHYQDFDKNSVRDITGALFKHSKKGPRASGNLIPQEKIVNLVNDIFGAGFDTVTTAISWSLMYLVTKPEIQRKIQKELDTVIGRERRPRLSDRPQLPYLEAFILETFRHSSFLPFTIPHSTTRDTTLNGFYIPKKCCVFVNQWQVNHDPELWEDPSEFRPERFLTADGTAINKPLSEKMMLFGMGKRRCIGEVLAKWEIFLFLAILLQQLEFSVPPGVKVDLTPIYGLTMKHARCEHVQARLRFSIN

[20] = control 3'UTR Renilla luciferase suppression, dose response, counter-screen for Shn3 inhibitor project, cell-based, Clone20-Shn3RL, cherry-picked (AID 624133); format: functional
[21] = Shn3 3'UTR reporter inhibitors, dose response, cell-based, Clone20 osteoblasts, firefly luciferase, cherry-picked (AID 624132); format: functional;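 note: firefly luciferase luminescence from reporter carrying the Shn3 3'UTR in osteoblasts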
[22] = HepG2 cell cytotoxicity, dose response, cytotoxicity control for Shn3 inhibitor project, CellTiter-Glo, cherry-picked (AID 624134); format: functional, cell-based

Chain of Cytochrome P450 2D6 (P10635 whole entry): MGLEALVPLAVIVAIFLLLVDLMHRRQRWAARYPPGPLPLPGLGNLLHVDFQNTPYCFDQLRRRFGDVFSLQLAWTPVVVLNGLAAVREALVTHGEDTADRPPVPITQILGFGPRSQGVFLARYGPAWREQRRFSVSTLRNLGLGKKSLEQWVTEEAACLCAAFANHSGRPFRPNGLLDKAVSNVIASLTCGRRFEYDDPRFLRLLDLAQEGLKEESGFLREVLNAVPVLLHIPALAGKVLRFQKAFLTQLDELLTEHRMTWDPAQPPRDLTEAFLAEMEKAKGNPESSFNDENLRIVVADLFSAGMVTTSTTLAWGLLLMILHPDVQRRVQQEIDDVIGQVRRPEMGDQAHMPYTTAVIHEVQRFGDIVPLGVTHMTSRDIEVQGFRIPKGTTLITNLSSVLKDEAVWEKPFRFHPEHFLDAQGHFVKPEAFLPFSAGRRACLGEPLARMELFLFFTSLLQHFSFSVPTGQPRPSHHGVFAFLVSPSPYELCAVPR
Chain of Cytochrome P450 3A4 (P08684 whole entry): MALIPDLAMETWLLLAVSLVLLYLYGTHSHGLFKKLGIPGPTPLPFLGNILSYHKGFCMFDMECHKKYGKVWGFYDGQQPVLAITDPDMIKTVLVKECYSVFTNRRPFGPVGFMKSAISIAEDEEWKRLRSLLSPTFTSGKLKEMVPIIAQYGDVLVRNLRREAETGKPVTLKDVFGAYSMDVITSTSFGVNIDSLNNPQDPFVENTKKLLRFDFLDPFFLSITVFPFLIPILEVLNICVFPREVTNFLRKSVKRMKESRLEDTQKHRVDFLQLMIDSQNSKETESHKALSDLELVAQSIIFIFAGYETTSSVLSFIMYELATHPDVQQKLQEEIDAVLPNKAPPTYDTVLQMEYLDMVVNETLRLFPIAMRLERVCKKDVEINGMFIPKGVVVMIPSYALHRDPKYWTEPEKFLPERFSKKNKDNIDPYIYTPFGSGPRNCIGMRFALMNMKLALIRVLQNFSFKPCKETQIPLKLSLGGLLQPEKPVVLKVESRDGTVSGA

CNC(=O)C1CC(=O)N(c2ccc(OCC(=O)N3CCCC3)cc2)C1 (configuration not stated)
EC50 [1]: > 260 µM (inactive) | EC50 [2]: > 350 µM (not active) | EC50 [3]: > 350 µM (not active)

Cc1ccc(S(=O)(=O)c2c(N)n(Cc3ccco3)c3nc4ccccc4nc23)cc1C
EC50 [4]: 18.4 µM (active) | EC50 [5]: 20.1 µM (active)

CCOC(=O)c1cc2sccc2n1CC(=O)Nc1ccc(OC)cc1
EC50 [6]: > 195 µM (not active) | EC50 [2]: > 350 µM (not active) | EC50 [3]: > 350 µM (not active)

Cc1ccc(C)c(NC(S)=NC(NC(=O)Cc2cccc3ccccc23)C(Cl)(Cl)Cl)c1 (configuration not stated)
AC50 [7]: 0.861 µM (active) | EC50 [4]: 13.9 µM (active) | AC50 [8]: 4.16 µM (active) | EC50 [5]: 15.5 µM (active)

O=C(c1ccco1)N1CCC[C@@]2(CCN(c3ncccn3)C2)C1
AC50 [9]: 25.1 µM (inconclusive)

C=C(C)CN=C(S)N=Nc1c(O)[nH]c2ccc([N+](=O)[O-])cc12
EC50 [10]: 151 µM (inconclusive) | IC50 [11]: > 20 µM (inactive) | AC50 [12]: 52.8 µM (active)

CCOC(=O)c1c(NC(=O)CSc2nc3cc(Cl)ccc3c(=O)n2Cc2ccco2)sc(C(=O)N(C)C)c1C
EC50 [1]: 7.33 µM (active) | EC50 [4]: 6.8 µM (active) | EC50 [13]: > 60 µM (inconclusive) | EC50 [14]: 0.999 µM (active) | EC50 [5]: 12.2 µM (active)

CCC(CC)NC(=O)c1cc2c(C)nn(Cc3ccccc3Cl)c2s1
EC50 [15]: > 120 µM (not active) | EC50 [16]: 11.7 µM (active)

COc1ccc(CNc2ccnc(-c3ccccc3Cl)n2)c(OC)c1
AC50 [9]: 39.8 µM (inconclusive)

Cc1cccc(NC(S)=Nc2ccc(Br)cc2)c1
AC50 [9]: 8.91 µM (inconclusive) | AC50 [17]: 25.1 µM (inconclusive)

CCCn1c(SCC(=O)N2CCc3ccccc3C2)nc2c1c(=O)n(C)c(=O)n2C
EC50 [2]: > 350 µM (not active) | EC50 [3]: > 350 µM (not active)

CC(C)(C)NC(=O)CN(C(=O)Cn1nnc(-c2ccc(Cl)cc2)n1)C1CCN(Cc2ccccc2)CC1
CC50 [18]: 25.7 µM (active) | EC50 [4]: 41.4 µM (active) | EC50 [5]: 37.9 µM (active)

CC(C)(C)NS(=O)(=O)c1ccc(NC(=O)c2cc(-c3ccccc3)nc3ccccc23)cc1
AC50 [9]: 3.98 µM (inconclusive) | AC50 [19]: 3.16 µM (inconclusive) | EC50 [13]: > 60 µM (not active) | EC50 [14]: 2.03 µM (active)

Cc1ccc2nnn(Cc3cccc(C(C)(C)C)c3O)c2c1
AC50 [20]: 7.31 µM (active) | EC50 [1]: > 260 µM (inactive) | AC50 [21]: 5.44 µM (active) | AC50 [22]: 59.3 µM (active)

CN(CC(=O)Nc1ccc(S(=O)(=O)N2CCCC2)cc1)CC(=O)Nc1cccc(F)c1
EC50 [2]: > 350 µM (not active) | EC50 [3]: > 350 µM (not active)

O=C(NNC(=O)C(O)(c1ccccc1)c1ccccc1)C1CC1
EC50 [2]: > 350 µM (not active) | EC50 [3]: > 350 µM (not active)

O=C(NCc1ccc2c(c1)OCO2)c1nc(S(=O)(=O)Cc2ccccc2F)ncc1Cl
EC50 [10]: 3.25 µM (active) | AC50 [7]: 5.02 µM (active) | AC50 [20]: 5.92 µM (active) | AC50 [21]: 5.19 µM (active) | AC50 [22]: 31.1 µM (active) | AC50 [12]: 2.6 µM (active)

O=C(Nc1ccc(Br)cc1F)c1ccc2c(c1)OCCO2
EC50 [15]: 10.8 µM (active)

COc1ccc(C(=O)Nc2ccc(OCC(F)(F)C(F)F)c(C(F)(F)F)c2)cc1OC
AC50 [7]: 3.78 µM (active) | AC50 [9]: 22.4 µM (inconclusive)

COc1ccc(CN(C)CC(=O)Nc2ccc(SC(F)F)cc2)cc1OC
EC50 [2]: > 350 µM (not active) | EC50 [3]: > 350 µM (not active)

O=C(NC12CC3CC(CC(C3)C1)C2)C12CC3CC(C1)CC(n1cnc(Cl)n1)(C3)C2
AC50 [9]: 11.2 µM (inconclusive) | AC50 [17]: 14.1 µM (inconclusive)

CN(CC(=O)Nc1cccc(S(=O)(=O)N2CCOCC2)c1)CC(=O)Nc1ccc(Cl)c(C(F)(F)F)c1
AC50 [20]: 6.89 µM (active) | AC50 [21]: 2.4 µM (active) | AC50 [22]: 56.7 µM (active)

COc1ccc(/N=c2\oc3ccc(OC)cc3cc2-c2nc3ccccc3[nH]2)cc1
EC50 [4]: 3.77 µM (active) | EC50 [5]: 13 µM (active)

Cc1cc(C)n(-c2nnc(C)n2/N=C/c2ccccc2OCc2ccccc2Cl)n1
AC50 [9]: 28.2 µM (inconclusive)
